Here are results for 15 compounds from patent US20050131238A1, “Spermicides” (SSL International plc, priority 2001, published 2005).

One experiment relates to human sperm. Description: Evaluation of human sperm motility (spermicidal efficacy), manual microscopy. Type of experiment: cell-based. As to conditions: concentration giving 50% inhibition of sperm motility vs control, motility determined within 30 s by manual microscopy, ± SEM, read-out: Inhibition Human Sperm Motility (ED50). The source says: 1. Evaluation of Human Sperm Motility (Spermicidal Efficacy)
The number of motile sperm (%) is rapidly determined (within 30s) following exposure to varying concentrations of spermicide using manual microscopy. Using non-linear regression analysis motility data from these screens is used to generate concentration response curves and subsequently an ED50 value using GraphPad Prism software (San Diego, Calif., USA). The ED50 value is the concentration of spermicide which produces 50% inhibition of sperm motility compared to control.

The subject of the next experiment is ME180 cells. Description: Cell cytotoxicity (MTT cell viability assay). Type of experiment: cell-based. The conditions noted are these: Homo sapiens, ME-180, concentration giving 50% inhibition of cell viability vs control, ± SEM. As for the experimental part: 2. Determination of Cell Cytotoxicity (MTT Cell Viability Assay)
The effect of compounds on vaginal cell viability is assessed using the MTT assay. MTT is a tetrazolium salt which is converted by viable cells to an insoluble […]. This colour conversion is measured by spectrophotometry. Data is then subjected to non-linear regression analysis to generate concentration response curves and subsequently an EC50 value curves using GraphPad Prism software (San Diego, Calif., USA). The EC50 value is the concentration of spermicide which produces 50% inhibition of cell viability compared to control.

In a further experiment the test system is sperm. As to conditions: 10 mM CPhM solution, incubation for 10 minutes; decreased from 80%; cited from earlier work.

Take `O=C1C=CC(=O)N1c1ccc(OCCOCCOCCOCCOc2ccc(N3C(=O)C=CC3=O)cc2)cc1` [Compound 15]: the EC50 in the experiment on human sperm was found to be 5 µM; with ME180 cells, 153 µM.

In the case of `COC(=O)c1scc(C)c1N1C(=O)C=CC1=O` [Compound 6], the EC50 in the experiment on human sperm came to 26 µM; in the experiment with ME180 cells it was 88 µM.

Turning to `O=C1C=CC(=O)N1c1ccccc1` [Compound 1], the EC50 with human sperm came out at 32 µM; in the experiment with ME180 cells, 370 µM.

With `CCOC(=O)c1ccc(N2C(=O)C=CC2=O)cc1` [Compound 3], the EC50 in the experiment with human sperm turned out to be 77 µM; in the experiment on ME180 cells it was 363 µM.

Take `N#Cc1cccc(N2C(=O)C=CC2=O)c1` [Compound 9]: the figures for the EC50 in the experiment with human sperm and in the experiment on ME180 cells were 56 µM and 143 µM, respectively.

For the compound `O=C1C=CC(=O)N1CCN1C(=O)C=CC1=O` [Compound 10], the EC50 in the experiment with human sperm came to 4 µM; in the experiment with ME180 cells it was 516 µM.

Turning to `O=C1C=CC(=O)N1C1CCCCC1` [Compound 5], the EC50 with human sperm is 294 µM; in the experiment on ME180 cells it was 114 µM.

In the case of `O=C(O)c1ccc(N2C(=O)C=CC2=O)cc1O` [CPhM, N-(4-carboxy-3-hydroxy-phenyl)-maleimide], the “fertilising capacity of sperm” value in the experiment with sperm is recorded as 17%.

In the case of `O=C1C=CC(=O)N1CCOCCOCCOCCN1C(=O)C=CC1=O` [Compound 12], the EC50 worked out at 10.5 µM with human sperm and 333 µM with ME180 cells.

With `O=C1C=CC(=O)N1c1ccc2c(c1)OCCO2` [Compound 7], the EC50 in the experiment on human sperm turned out to be 43 µM; in the experiment with ME180 cells, 410 µM.

In the case of `Cc1cc(N2C(=O)C=CC2=O)no1` [Compound 8], the EC50 worked out at 79 µM with human sperm and 858 µM in the experiment with ME180 cells.

As for `O=C1C=CC(=O)N1c1ccc(-c2ccc(N3C(=O)C=CC3=O)cc2)cc1` [Compound 11], the EC50 in the experiment with human sperm was 1.4 µM; in the experiment on ME180 cells it was over 30 µM.

`COCCOCCOCCOCCOc1ccc(N2C(=O)C=CC2=O)cc1` [Compound 14]: the EC50 stood at 149 µM in the experiment with human sperm and 285 µM in the experiment on ME180 cells.

On to `O=C1C=CC(=O)N1c1ccc(OCCOCCOCCOCCOCCOc2ccc(N3C(=O)C=CC3=O)cc2)cc1` [Compound 13], for which the figures for the EC50 in the experiment with human sperm and with ME180 cells were 4.6 µM and 125 µM, respectively.

For `O=C1C=CC(=O)N1c1ccc(Nc2ccccc2)cc1` [Compound 4], the figures for the EC50 in the experiment on human sperm and in the experiment with ME180 cells were 31 µM and 268 µM, respectively.
